Experimental data published in US9550763B2, “Heterocyclic ring and carbocyclic derivative” (Shionogi & Co., Ltd., priority 2012, dated 2017).

molecular target: T1, human P2X3 receptor (Homo sapiens (Human), UniProt P56373); experiment: Evaluation of human P2X3 receptor inhibitory activity (Test Example 1-1, FDSS 3000, 96-well, 50 nM ATP); type: cell-based; details: human P2X3 receptor in C6BU-1 cells; Test Example 1-1 (compounds I-001 to I-300)
How it was run: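 C6BU-1 cells stably expressing human P2X3, loaded with 4 μM Fluo-3-AM (pH 7.5), preincubated 5 min with compound before 50 nM ATP challenge; fluorescence followed 4 min on FDSS 3000. IC50 derived from peak/baseline fluorescence ratio, no-compound as 0% and buffer-instead-of-ATP as 100% inhibition.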

T1 sequence (P56373 whole entry): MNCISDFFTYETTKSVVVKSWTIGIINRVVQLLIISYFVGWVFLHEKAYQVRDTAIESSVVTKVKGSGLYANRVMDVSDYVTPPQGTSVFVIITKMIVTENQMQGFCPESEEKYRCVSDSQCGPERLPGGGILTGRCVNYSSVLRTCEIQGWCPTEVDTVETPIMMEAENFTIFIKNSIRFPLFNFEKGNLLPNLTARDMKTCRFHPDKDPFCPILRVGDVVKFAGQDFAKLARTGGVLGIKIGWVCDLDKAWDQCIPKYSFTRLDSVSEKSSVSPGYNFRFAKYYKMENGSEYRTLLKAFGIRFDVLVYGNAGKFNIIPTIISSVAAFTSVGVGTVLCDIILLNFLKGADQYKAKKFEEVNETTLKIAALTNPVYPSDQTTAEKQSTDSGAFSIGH

Compared with `CCOC(=O)Cc1c[nH]/c(=N\c2ccc3oc(CC)c(C)c3c2)n(Cc2ccc(Cl)cc2)c1=O` [Compound I-072], `CCc1oc2ccc(/N=c3\[nH]cc(CC(=O)O)c(=O)n3Cc3ccc(Cl)cc3)cc2c1C` [Compound I-074] is 3.6-fold higher in IC50: 228 nM for the first, 828 nM for the second. The first is the more potent here.

Compared with `CCC(=O)Nc1c[nH]/c(=N\c2ccc(Oc3ccnc(C(=O)O)c3)cc2)n(Cc2ccc(Cl)cc2)c1=O` [Compound I-105], `CCC(=O)Nc1c[nH]/c(=N\c2ccc(Oc3cccc(C(=O)O)n3)cc2)n(Cc2ccc(Cl)cc2)c1=O` [Compound I-104] is 1.7-fold lower in IC50: 5 nM for the first, 3 nM for the second. The second is the more potent here.

Going from `CCCn1c(=O)cc(Nc2ccc(Oc3cnc(C(=O)O)nc3)cn2)n(Cc2ccc(Cl)cc2)c1=O` [Compound I-201] to `CCCn1c(=O)cc(Nc2ccc(Oc3cccc(C(=O)O)c3)cn2)n(Cc2ccc(Cl)cc2)c1=O` [Compound I-167], the IC50 falls from 96 nM to 35 nM (2.7-fold).

First: O=c1c(CO)c[nH]/c(=N\c2ccc(Oc3cccc(F)n3)cc2)n1Cc1ccc(Cl)cc1 [Compound I-037]
Second: NC(=O)c1c[nH]/c(=N\c2ccc(Oc3cccc(F)n3)cc2)n(Cc2ccc(Cl)cc2)c1=O [Compound I-034]
The IC50 of the first is 2.4-fold higher: 34 nM for the first, 14 nM for the second.

`CCc1oc2ccc(Nc3ncc(NC(C)=O)c(=O)n3Cc3ccc(Cl)cc3)cc2c1C` [Compound I-071] and `CCc1oc2ccc(Nc3ncc(NC(=O)C4CCOCC4)c(=O)n3Cc3ccc(Cl)cc3)cc2c1C` [Compound I-077] are within 1.5-fold of each other in IC50: 171 nM for the first, 191 nM for the second.

Going from `CCn1c(=O)cc(Nc2cc(C)c(Oc3cccc(C(=O)O)c3)cn2)n(Cc2ccc(Cl)cc2)c1=O` [Compound I-203] to `CCCn1c(=O)cc(Nc2ccc(Oc3cccc(C(=O)O)c3)c(C)n2)n(Cc2ccc(Cl)cc2)c1=O` [Compound I-259], the IC50 falls from 336 nM to 16 nM (21-fold). The second is the more potent here.

Going from `Cc1cc(Nc2nc(=O)c(C(=O)NC3CCOCC3)cn2Cc2ccc(Cl)cc2)ccc1Oc1cccc(F)n1` [Compound I-157] to `N#Cc1cccc(Oc2ccc(Nc3nc(=O)c(C(=O)NC4CCOCC4)cn3Cc3ccc(Cl)cc3)cc2)n1` [Compound I-216], the IC50 falls from 11 nM to 6 nM (1.8-fold).

Going from `CCn1c(=O)cc(Nc2ccc(Oc3ccc(C(=O)O)cc3)nc2)n(Cc2ccc(Cl)cc2)c1=O` [Compound I-063] to `CCn1c(=O)cc(Nc2ccc(Oc3cncc(C(N)=O)c3)cc2)n(Cc2ccc(Cl)cc2)c1=O` [Compound I-001], the IC50 falls from 422 nM to 11 nM (38-fold).

First: O=C(Nc1cnc(Nc2ccc(Oc3ccc(F)cn3)cc2)n(Cc2ccc(Cl)cc2)c1=O)C1CCOCC1 [Compound I-133]
Second: O=C(Nc1cnc(Nc2ccc(Oc3ccon3)cc2)n(Cc2ccc(Cl)cc2)c1=O)C1CCOCC1 [Compound I-086]
The IC50 of the first is 2-fold lower: 1 nM for the first, 2 nM for the second. The first is the more potent here.

First: O=C(Nc1c[nH]/c(=N\c2ccc(Oc3ccon3)cc2)n(Cc2ccc(Cl)cc2)c1=O)C1CNC1 [Compound I-181]
Second: O=C(Nc1c[nH]/c(=N\c2ccc(Oc3ccon3)cc2)n(Cc2ccc(Cl)cc2)c1=O)C1CCOC1 (centres unmarked) [Compound I-213]
The IC50 of the first is 4.9-fold higher: 131 nM for the first, 27 nM for the second. The second is the more potent here.

First: CCc1oc2ccc(Nc3nc(=O)c(C(=O)NC(CC)CC)cn3Cc3ccc(Cl)cc3)cc2c1C [Compound I-031]
Second: CCc1oc2ccc(Nc3nc(=O)c(C(=O)NC(C)C)cn3Cc3ccc(Cl)cc3)cc2c1C [Compound I-022]
The IC50 of the first is 1.7-fold lower: 54 nM for the first, 94 nM for the second. The first is the more potent here.

Going from `COC(=O)[C@@H](C)Cn1c(=O)cc(Nc2ccc(Oc3cccc(F)c3)c(C)n2)n(Cc2ccc(Cl)cc2)c1=O` [Compound I-244] to `COC(=O)[C@@H](C)Cn1c(=O)cc(Nc2ccc(Oc3ncccc3F)cc2)n(Cc2ccc(Cl)cc2)c1=O` [Compound I-115], the IC50 falls from 646 nM to 9 nM (72-fold).

Going from `CC(=O)Nc1cnc(Nc2ccc(Oc3ccon3)cc2)n(Cc2ccc(Cl)cc2)c1=O` [Compound I-065] to `C[C@@H](Cn1c(=O)cc(Nc2ccc(Oc3ccon3)cc2)n(Cc2ccc(Cl)cc2)c1=O)C(=O)O` [Compound I-121], the IC50 falls from 99 nM to 26 nM (3.8-fold).

Going from `CCc1oc2ccc(/N=c3\[nH]cc(CC(C)(C)O)c(=O)n3Cc3ccc(Cl)cc3)cc2c1C` [Compound I-103] to `CCc1oc2ccc(/N=c3\[nH]cc(NC(=O)C4CCOCC4)c(=O)n3Cc3ccc(Cl)cc3)cc2c1C` [Compound I-030, 1-(4-chlorobenzyl)-2-(2-ethyl-3-methylbenzofuran-5-ylamino)-5-(tetrahydro-2H-pyran-4-ylcarbonylamino)pyrimidin-6(1H)-one], the IC50 falls from 144 nM to 5 nM (29-fold). The second is the more potent here.

Compared with `O=C(Nc1c[nH]/c(=N\c2ccc(Oc3ccon3)cc2)n(Cc2ccc(Cl)cc2)c1=O)c1cc[nH]n1` [Compound I-231], `O=C(Nc1c[nH]/c(=N\c2ccc(Oc3ccon3)cc2)n(Cc2ccc(Cl)cc2)c1=O)c1ccncc1` [Compound I-266] is 5.7-fold lower in IC50: 388 nM for the first, 68 nM for the second.

Compared with `Cc1cc(/N=c2\[nH]cc(NC(=O)C3CCOCC3)c(=O)n2Cc2ccc(Cl)cc2)ccc1Oc1ccon1` [Compound I-248], `CN(C)CCC(=O)Nc1c[nH]/c(=N\c2ccc(Oc3ccon3)cc2)n(Cc2ccc(Cl)cc2)c1=O` [Compound I-185] is 26-fold higher in IC50: 6 nM for the first, 158 nM for the second.

First: CCOC(=O)c1cnc(Nc2ccc(Oc3cccc(C(=O)O)n3)cc2)n(Cc2ccc(Cl)cc2)c1=O [Compound I-055]
Second: CCOC(=O)c1cnc(Nc2ccc(Oc3cccc(C(N)=O)n3)cc2)n(Cc2ccc(Cl)cc2)c1=O [Compound I-043]
The IC50 of the first is 3.5-fold lower: 2 nM for the first, 7 nM for the second. The first is the more potent here.

First: CCOC(=O)c1c[nH]/c(=N\c2ccc(Oc3ccc(F)cn3)cc2)n(Cc2ccc(Cl)cc2)c1=O [Compound I-128]
Second: O=C(O)c1c[nH]/c(=N\c2ccc(Oc3ccc(F)cn3)cc2)n(Cc2ccc(Cl)cc2)c1=O [Compound I-141]
The IC50 of the first is 13-fold lower: 35 nM for the first, 467 nM for the second. The first is the more potent here.

`O=C(NCCO)c1c[nH]/c(=N\c2ccc(Oc3ncccc3F)cc2)n(Cc2ccc(Cl)cc2)c1=O` [Compound I-111] and `CCC(=O)Nc1c[nH]/c(=N\c2ccc(Oc3ccc(CO)nn3)cc2)n(Cc2ccc(Cl)cc2)c1=O` [Compound I-089] are within 1.5-fold of each other in IC50: 22 nM for the first, 17 nM for the second.

Going from `O=c1c(-c2ccncc2)c[nH]/c(=N\c2ccc(Oc3ccon3)cc2)n1Cc1ccc(Cl)cc1` [Compound I-274] to `Cc1cnc(-c2c[nH]/c(=N\c3ccc(Oc4cccc(C#N)n4)cc3)n(Cc3ccc(Cl)cc3)c2=O)o1` [Compound I-278, 1-(4-chlorobenzyl)-2-[4-(6-cyano-2-pyridyloxy)phenylamino]-5-(5-methyloxazol-2-yl)pyrimidin-6(1H)-one], the IC50 falls from 356 nM to 20 nM (18-fold). The second is the more potent here.

`O=C(NC1CCOCC1)c1cn(Cc2ccc(Cl)cc2)c(Nc2ccc(Oc3ccncc3)cc2)nc1=O` [Compound I-199] and `NC(=O)c1cc(Oc2ccc(Nc3nc(=O)c(C(=O)NC4CCOCC4)cn3Cc3ccc(Cl)cc3)cc2)ccn1` [Compound I-240] are within 1.5-fold of each other in IC50: 8 nM for the first, 6 nM for the second.

Compared with `COC(=O)Nc1c[nH]/c(=N\c2ccc(Oc3cccc(C(N)=O)n3)cc2)n(Cc2ccc(Cl)cc2)c1=O` [Compound I-007], `Cc1noc(-c2cn(Cc3ccc(Cl)cc3)/c(=N/c3ccc(Oc4cccc(F)n4)cc3)[nH]c2=O)n1` [Compound I-190, 1-(4-chlorobenzyl)-2-[4-(6-fluoro-2-pyridyloxy)phenylamino]-5-(3-methyl-1,2,4-oxadiazol-5-yl)pyrimidin-4(1H)-one] is 3.8-fold lower in IC50: 23 nM for the first, 6 nM for the second. The second is the more potent here.

Compared with `CCCn1c(=O)cc(Nc2ccc(Oc3cccc(C(=O)OCC)c3)cn2)n(Cc2ccc(Cl)cc2)c1=O` [Compound I-166], `CCn1c(=O)cc(Nc2ccc(Oc3cccc(C(N)=O)n3)c(F)c2)n(Cc2ccc(Cl)cc2)c1=O` [Compound I-026] is 56-fold lower in IC50: 169 nM for the first, 3 nM for the second.

Compared with `C[C@@H](Cn1c(=O)cc(Nc2ccc(Oc3cccc(C(N)=O)n3)c(F)c2)n(Cc2ccc(Cl)cc2)c1=O)C(=O)O` [Compound I-126], `O=C(NC1CCOCC1)c1cn(Cc2ccc(Cl)cc2)c(Nc2ccc(Oc3ccc(F)cn3)cc2)nc1=O` [Compound I-158] is 3.7-fold higher in IC50: 3 nM for the first, 11 nM for the second.

molecular target: T1, human P2X3 receptor; experiment: Evaluation of human P2X3 receptor inhibitory activity (Test Example 1-2, FLIPR 384, 384-well, 150 nM ATP); type: cell-based; details: human P2X3 receptor in C6BU-1 cells; Test Example 1-2 (compounds I-301 to I-483); read-out: P2X3 IC50
Procedure: Stably expressing cell line (C6BU-1 cell transfected with human P2X3 receptor gene (GenBank accession number Y07683) was used. The cells were seeded in a 384-well microtiter plate at a concentration of 3000 cells/well and cultured in the medium (7.0% fetal bovine serum, 7.0% horse serum, 1% antibiotic and antifungal in DMEM) for one day at 37° C. under 5% carbon dioxide atmosphere. The medium was replaced with 4 μM Fluo-3-AM solution (20 mM HEPES, […], 5.27 mM KCl, 0.9 mM MgCl2, 1.26 mM CaCl2, 5.6 mM D-glucose, 2.5 mM probenecid, 0.5% BSA, and 0.04% Pluronic F-127, pH 7.5) and incubated at 37° C. under 5% dioxide carbon atmosphere for one hour. The plate was washed with washing buffer (20 mM HEPES, 137 mM NaCl, 5.27 mM KCl, 0.9 mM MgCl2, 1.26 mM CaCl2, 5.6 mM D-glucose, 2.5 mM probenecid, pH7.5), and each well was added with 20 μL of this buffer. The plate was placed in High-Throughput Screening System FLIPR 384 (Molecular Device Co.). Measurement of fluorescence intensity by FLIPR 384 was started, and 20 μL of DMSO solutions containing different concentrations of the test compound as prepared by dilution with dilution buffer (20 mM HEPES, 137 mM NaCl, 5.27 mM KCl, 0.9 mM MgCl2, 1.26 mM CaCl2, 5.6 mM D-glucose, 2.5 mM probenecid, 0.1% Pluronic F-127, pH 7.5) were dispensed to each well through the built-in automatic dispenser. Five minutes after, 150 nM ATP solution (25 μL) prepared by dilution with the dilution buffer was dispensed through the built-in automatic dispenser, and the measurement of fluorescence intensity was continued for 4 min. For each well, the specific maximum fluorescence intensity was calculated as the ratio of the maximum fluorescence intensity after addition of the ATP solution to the fluorescence intensity at the starting of the measurement. The 50% inhibitory concentration (IC50) was calculated under the assumption that the specific maximum fluorescence intensity without test compound is 0% inhibition and that the specific maximum fluorescence intensity when the dilution buffer was added in place of ATP solution is 100% inhibition, to evaluate the inhibitory activity of the test compound. The specific maximum fluorescence intensity and IC50 were calculated using Spotfire (Science & Technology Systems, Inc.)
The data of the compounds I-001 to I-300 are the results by the method mentioned in Test Example 1-1, and the data of the compounds I-301 to I-483 are the results by the method mentioned in Test Example 1-2.

Compared with `COc1cn(Cc2ccc(Cl)cc2)c(Nc2ccc(Oc3cccc(F)n3)cc2)nc1=O` [Compound I-351, 1-(4-chlorobenzyl)-2-[4-(6-fluoro-2-pyridyloxy)phenylamino]-5-methoxypyrimidin-4(1H)-one], `COCCn1c(=O)cc(Nc2ccc(Oc3ccc(F)nc3)cc2)n(Cc2ccc(Cl)cc2)c1=O` [Compound I-342] is 9.8-fold lower in IC50: 98 nM for the first, 10 nM for the second. The second is the more potent here.
